Results from patent publication US8450373B2, “Alpha ketoamide compounds as cysteine protease inhibitors” (Virobay, Inc., priority 2005, dated 2013).

melting point: 152.5 to 153.5 °C
Compound: CC[C@H](NC(=O)[C@H](CCS(C)(=O)=O)N[C@@H](c1ccc(F)cc1)C(F)(F)F)C(=O)C(=O)NC1CC1 [Table I Cpd. 78, N-cyclopropyl-3S-{4-methanesulfonyl-2S-[2,2,2-trifluoro-1S-(4-fluoro-phenyl)-ethylamino]-butyrylamino}-2-oxo-pentanamide]
